This note sets out measurements from article PMC5584250, “Identification of deubiquitinase targets of isothiocyanates using SILAC-assisted quantitative mass spectrometry” (Oncotarget, 2017).

In one test the target is T1, UCH37 (Homo sapiens, UniProt Q9Y5K5).
T1 construct: gene UCHL5; Human UCH37 (isoform 1) with an N-terminal 6x histidine tag; with ADRM1 (RPN13)
The test is described as follows: d5/d0-NEM differential cysteine labeling LC-MS/MS on recombinant UCH37/ADRM1; also Ub-Rho110MP hydrolysis inhibition and activity-probe competition. Format: binding.

A further test addresses T2, VCPIP1 (Homo sapiens, UniProt Q96JH7).
T2 sequence (Q96JH7 1-1222): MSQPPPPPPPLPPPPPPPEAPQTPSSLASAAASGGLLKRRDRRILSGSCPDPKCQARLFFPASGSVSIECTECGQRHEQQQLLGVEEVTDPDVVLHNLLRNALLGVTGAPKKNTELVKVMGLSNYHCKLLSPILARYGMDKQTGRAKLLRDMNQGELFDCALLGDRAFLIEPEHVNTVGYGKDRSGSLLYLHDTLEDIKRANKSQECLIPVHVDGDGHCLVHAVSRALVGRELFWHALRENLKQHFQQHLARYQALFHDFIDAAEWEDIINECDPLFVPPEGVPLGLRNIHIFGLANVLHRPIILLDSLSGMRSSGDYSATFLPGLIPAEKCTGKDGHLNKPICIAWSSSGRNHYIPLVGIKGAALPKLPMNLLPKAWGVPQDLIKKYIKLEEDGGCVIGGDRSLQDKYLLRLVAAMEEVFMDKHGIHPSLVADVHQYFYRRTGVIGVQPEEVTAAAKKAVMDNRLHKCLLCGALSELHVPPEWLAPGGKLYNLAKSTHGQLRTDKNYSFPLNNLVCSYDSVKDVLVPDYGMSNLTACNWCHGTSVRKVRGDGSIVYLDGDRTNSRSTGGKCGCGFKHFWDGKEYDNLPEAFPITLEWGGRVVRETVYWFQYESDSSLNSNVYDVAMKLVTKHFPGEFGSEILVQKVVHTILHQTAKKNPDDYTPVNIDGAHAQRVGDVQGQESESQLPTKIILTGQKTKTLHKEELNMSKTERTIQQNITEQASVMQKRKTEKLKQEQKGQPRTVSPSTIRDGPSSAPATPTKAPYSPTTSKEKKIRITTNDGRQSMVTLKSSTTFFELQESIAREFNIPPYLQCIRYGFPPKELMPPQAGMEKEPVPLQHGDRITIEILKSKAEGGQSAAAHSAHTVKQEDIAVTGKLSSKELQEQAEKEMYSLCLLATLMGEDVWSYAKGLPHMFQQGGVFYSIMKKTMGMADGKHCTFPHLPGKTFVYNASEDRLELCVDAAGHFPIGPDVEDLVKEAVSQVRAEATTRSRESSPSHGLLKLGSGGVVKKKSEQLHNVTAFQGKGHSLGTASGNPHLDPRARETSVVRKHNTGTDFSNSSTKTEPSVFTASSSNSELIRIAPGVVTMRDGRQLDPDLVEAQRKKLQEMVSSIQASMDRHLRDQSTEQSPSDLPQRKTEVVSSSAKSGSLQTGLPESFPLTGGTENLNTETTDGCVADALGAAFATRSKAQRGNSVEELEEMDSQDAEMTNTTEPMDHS
The test is described as follows: SILAC-MS competitive activity profiling (biotin-Ub-PA/VME) in HeLa lysate, […] PEITC. Format: cell-based.

The target of another test is USP16 (Homo sapiens, UniProt Q9Y5T5). The test is described as above. The format is cell-based.
USP16, sequence (Q9Y5T5 whole entry): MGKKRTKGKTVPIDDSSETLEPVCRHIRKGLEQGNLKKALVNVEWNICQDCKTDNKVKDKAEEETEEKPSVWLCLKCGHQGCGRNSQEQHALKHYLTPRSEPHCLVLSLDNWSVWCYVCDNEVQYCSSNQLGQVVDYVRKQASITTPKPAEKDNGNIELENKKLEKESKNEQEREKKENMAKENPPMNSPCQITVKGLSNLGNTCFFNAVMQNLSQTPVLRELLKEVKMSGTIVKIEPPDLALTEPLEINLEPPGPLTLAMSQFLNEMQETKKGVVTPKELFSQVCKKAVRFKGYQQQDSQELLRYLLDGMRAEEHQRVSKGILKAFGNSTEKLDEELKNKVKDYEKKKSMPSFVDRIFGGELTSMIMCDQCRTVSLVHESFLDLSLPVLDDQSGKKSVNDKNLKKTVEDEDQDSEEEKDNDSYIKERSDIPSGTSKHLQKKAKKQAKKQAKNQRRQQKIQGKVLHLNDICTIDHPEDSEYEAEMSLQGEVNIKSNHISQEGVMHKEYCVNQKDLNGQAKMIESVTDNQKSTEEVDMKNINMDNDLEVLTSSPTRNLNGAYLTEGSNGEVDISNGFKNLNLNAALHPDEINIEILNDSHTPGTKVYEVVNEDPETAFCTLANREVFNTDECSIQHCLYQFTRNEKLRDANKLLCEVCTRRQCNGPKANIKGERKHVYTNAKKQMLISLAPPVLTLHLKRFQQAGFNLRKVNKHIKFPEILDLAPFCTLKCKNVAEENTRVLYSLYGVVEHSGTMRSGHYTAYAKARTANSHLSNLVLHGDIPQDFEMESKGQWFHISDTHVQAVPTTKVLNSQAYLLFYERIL
The target of another test is T3, USP3 (Homo sapiens, UniProt Q9Y6I4).
T3 sequence (Q9Y6I4 1-520): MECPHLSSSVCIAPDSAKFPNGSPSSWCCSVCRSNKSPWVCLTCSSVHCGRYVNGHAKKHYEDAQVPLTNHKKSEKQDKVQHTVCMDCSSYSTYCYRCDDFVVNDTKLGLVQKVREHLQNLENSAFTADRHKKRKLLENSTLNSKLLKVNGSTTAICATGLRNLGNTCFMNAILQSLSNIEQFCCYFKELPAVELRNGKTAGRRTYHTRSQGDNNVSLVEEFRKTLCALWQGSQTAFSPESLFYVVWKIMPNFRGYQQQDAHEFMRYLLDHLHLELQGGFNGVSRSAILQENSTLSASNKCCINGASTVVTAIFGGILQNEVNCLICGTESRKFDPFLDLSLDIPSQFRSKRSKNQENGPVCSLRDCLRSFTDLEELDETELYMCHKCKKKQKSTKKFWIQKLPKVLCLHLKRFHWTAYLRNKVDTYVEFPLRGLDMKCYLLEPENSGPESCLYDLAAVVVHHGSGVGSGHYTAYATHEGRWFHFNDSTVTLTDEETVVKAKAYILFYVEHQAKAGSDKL
The test is described as follows: Biotin-Ub-PA/VME activity-probe labeling with immunoblot after treatment of HEK293T cells; SILAC-MS in HeLa lysate. The format is cell-based. (In general: A western blot detects proteins with antibodies after separation by electrophoresis.)

In another test the target is T4, USP1 (Homo sapiens, UniProt O94782).
T4 construct: recombinant human His6-USP1/UAF1 complex; with UAF1
T4 sequence (O94782 whole entry): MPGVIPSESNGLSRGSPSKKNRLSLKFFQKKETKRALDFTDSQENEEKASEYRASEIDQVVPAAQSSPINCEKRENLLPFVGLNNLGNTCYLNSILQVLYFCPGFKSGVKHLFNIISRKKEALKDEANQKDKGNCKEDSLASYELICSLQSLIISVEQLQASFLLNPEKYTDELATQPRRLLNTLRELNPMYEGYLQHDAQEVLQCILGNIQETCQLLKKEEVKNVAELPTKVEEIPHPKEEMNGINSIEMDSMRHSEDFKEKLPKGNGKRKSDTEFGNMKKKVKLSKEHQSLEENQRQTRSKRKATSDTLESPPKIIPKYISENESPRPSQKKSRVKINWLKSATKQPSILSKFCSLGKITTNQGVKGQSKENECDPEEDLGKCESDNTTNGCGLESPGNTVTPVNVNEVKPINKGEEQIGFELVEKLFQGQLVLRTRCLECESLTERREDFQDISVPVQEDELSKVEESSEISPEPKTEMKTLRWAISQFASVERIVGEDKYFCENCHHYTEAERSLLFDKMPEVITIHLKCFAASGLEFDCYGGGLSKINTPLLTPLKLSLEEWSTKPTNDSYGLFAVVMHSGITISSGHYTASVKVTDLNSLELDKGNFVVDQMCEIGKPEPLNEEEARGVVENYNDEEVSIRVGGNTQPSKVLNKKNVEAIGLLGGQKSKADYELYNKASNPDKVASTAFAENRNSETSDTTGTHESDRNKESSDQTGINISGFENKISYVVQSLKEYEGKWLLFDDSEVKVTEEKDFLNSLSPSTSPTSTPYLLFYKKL
T4 sequence (Q8TAF3 whole entry partner): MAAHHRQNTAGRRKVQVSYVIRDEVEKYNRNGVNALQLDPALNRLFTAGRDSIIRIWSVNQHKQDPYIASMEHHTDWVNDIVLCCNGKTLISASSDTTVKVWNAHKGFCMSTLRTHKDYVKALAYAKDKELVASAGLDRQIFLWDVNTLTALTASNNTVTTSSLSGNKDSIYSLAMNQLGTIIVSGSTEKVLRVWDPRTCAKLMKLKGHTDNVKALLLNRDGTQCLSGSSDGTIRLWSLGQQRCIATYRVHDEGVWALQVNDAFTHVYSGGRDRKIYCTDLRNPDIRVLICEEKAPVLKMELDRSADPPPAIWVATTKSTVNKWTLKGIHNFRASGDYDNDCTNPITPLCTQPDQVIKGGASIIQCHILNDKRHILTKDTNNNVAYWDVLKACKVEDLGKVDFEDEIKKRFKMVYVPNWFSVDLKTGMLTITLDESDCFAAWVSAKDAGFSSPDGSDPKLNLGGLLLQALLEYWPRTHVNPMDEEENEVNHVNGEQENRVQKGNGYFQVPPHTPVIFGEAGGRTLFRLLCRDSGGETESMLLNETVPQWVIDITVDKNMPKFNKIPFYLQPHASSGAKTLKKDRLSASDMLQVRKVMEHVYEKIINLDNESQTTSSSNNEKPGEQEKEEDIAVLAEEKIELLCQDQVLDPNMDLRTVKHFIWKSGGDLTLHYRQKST
Kind of test: K63-linked di-ubiquitin gel-based hydrolysis assay with purified USP1/UAF1; also probe labeling in cells and SILAC-MS. The format is biochemical. An excerpt: K63-linked di-ubiquitin gel-based hydrolysis assay with purified USP1/UAF1; also probe labeling in cells and SILAC-MS on USP1 | hydrolysis of di-Ub by purified USP1 in complex with its activator UAF1 ... Dose dependent inhibition was observed

T1 sequence (Q16186 2-407): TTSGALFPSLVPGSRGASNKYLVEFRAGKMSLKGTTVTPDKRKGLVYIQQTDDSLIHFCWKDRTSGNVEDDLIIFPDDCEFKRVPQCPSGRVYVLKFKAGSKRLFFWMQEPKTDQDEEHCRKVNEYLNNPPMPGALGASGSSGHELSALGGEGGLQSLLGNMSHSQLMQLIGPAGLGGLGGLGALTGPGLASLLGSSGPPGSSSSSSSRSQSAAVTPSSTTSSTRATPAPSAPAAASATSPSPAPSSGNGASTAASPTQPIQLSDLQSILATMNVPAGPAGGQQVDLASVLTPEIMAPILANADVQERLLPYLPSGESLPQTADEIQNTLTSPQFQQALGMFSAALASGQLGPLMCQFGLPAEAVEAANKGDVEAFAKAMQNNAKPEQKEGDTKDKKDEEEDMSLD
T1 sequence (Q9Y5K5 whole entry, canonical isoform): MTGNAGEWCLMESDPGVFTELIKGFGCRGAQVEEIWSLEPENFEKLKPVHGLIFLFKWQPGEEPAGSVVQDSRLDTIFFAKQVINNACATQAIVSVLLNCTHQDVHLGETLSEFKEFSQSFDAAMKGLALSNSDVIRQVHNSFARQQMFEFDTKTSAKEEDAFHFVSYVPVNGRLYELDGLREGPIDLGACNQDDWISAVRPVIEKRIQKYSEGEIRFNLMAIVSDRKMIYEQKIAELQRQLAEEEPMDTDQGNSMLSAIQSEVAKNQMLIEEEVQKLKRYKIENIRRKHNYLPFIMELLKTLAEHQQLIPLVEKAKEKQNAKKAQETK

Consider `S=C=NCCc1ccccc1` [PEITC], for which the “d5/d0-NEM differential cysteine labeling LC-MS/MS on recombinant UCH37/ADRM1; al” value at UCH37 was “increase in d0-NEM labeling at Cys88, indicating that the active-site cysteine is the site of PEITC modification”. Further, the “SILAC-MS competitive activity profiling (biotin-Ub-PA/VME) in HeLa lysate, 75 μM” value at VCPIP1 was “the inhibition of VCPIP1 by PEITC is the first report of inhibition of an OTU domain DUB”; on USP16 it was “USP1, USP3, USP16, USP48 and VCPIP1 were only identified in the absence of PEITC”. In addition, on USP3, the “Biotin-Ub-PA/VME activity-probe labeling with immunoblot after treatment of HEK2” value is “inhibition of USP3 by PEITC in living cells was confirmed by observing the molecular shift upon probe labeling”. Also, at USP1, the “K63-linked di-ubiquitin gel-based hydrolysis assay with purified USP1/UAF1; also” value is reported as “hydrolysis of di-Ub by purified USP1 in complex with its activator UAF1 ... Dose dependent inhibition was observed”.
